Assay results taken from PubChem BioAssay (NCI).
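Tested at 5 concentrations; 48 h exposure; 96-well plates; endpoints linearly interpolated, else capped at highest concentration. At the GI50, growth is halved. TGI marks complete inhibition of growth.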

Tests used:
Assay in all cases: NCI-60 cell line screen, 48 h
786-0 renal = system: 786-0 renal
A498 renal = system: A498 renal
A549 NSCLC = system: A549 NSCLC
ACHN renal = system: ACHN renal
BT-549 breast = system: BT-549 breast
CAKI-1 renal = system: CAKI-1 renal
CCRF-CEM leukemia = system: CCRF-CEM leukemia
COLO 205 colon = system: COLO 205 colon
DU-145 prostate = system: DU-145 prostate
EKVX NSCLC = system: EKVX NSCLC
HCC-2998 colon = system: HCC-2998 colon
HCT-116 colon = system: HCT-116 colon
HCT-15 colon = system: HCT-15 colon
HL-60(TB) leukemia = system: HL-60(TB) leukemia
HOP-62 NSCLC = system: HOP-62 NSCLC
HOP-92 NSCLC = system: HOP-92 NSCLC
HS 578T breast = system: HS 578T breast
HT29 colon = system: HT29 colon
IGROV1 ovarian = system: IGROV1 ovarian
K-562 leukemia = system: K-562 leukemia
KM12 colon = system: KM12 colon
LOX IMVI melanoma = system: LOX IMVI melanoma
M14 melanoma = system: M14 melanoma
MALME-3M melanoma = system: MALME-3M melanoma
MCF7 breast = system: MCF7 breast
MDA-MB-231 breast = system: MDA-MB-231 breast
MDA-MB-435 = system: MDA-MB-435
MDA-MB-468 breast = system: MDA-MB-468 breast
MOLT-4 leukemia = system: MOLT-4 leukemia
NCI-H226 lung = system: NCI-H226 lung
NCI-H23 lung = system: NCI-H23 lung
NCI-H460 lung = system: NCI-H460 lung
NCI-H522 lung = system: NCI-H522 lung
NCI/ADR-RES ovarian = system: NCI/ADR-RES ovarian
OVCAR-3 ovarian = system: OVCAR-3 ovarian
OVCAR-4 ovarian = system: OVCAR-4 ovarian
OVCAR-5 ovarian = system: OVCAR-5 ovarian
OVCAR-8 ovarian = system: OVCAR-8 ovarian
PC-3 prostate = system: PC-3 prostate
RXF 393 renal = system: RXF 393 renal
SF-268 CNS = system: SF-268 CNS
SF-295 CNS = system: SF-295 CNS
SF-539 CNS = system: SF-539 CNS
SK-MEL-2 melanoma = system: SK-MEL-2 melanoma
SK-MEL-28 melanoma = system: SK-MEL-28 melanoma
SK-MEL-5 melanoma = system: SK-MEL-5 melanoma
SK-OV-3 ovarian = system: SK-OV-3 ovarian
SN12C renal = system: SN12C renal
SNB-19 CNS = system: SNB-19 CNS
SNB-75 CNS = system: SNB-75 CNS
SR leukemia = system: SR leukemia
SW-620 colon = system: SW-620 colon
T-47D breast = system: T-47D breast
TK-10 renal = system: TK-10 renal
U251 CNS = system: U251 CNS
UACC-257 melanoma = system: UACC-257 melanoma
UACC-62 melanoma = system: UACC-62 melanoma
UO-31 renal = system: UO-31 renal

`CCCn1c(=O)c2[nH]c(-c3ccc(OCc4nc5ccccc5[nH]4)cc3)nc2n(CCC)c1=O` was tested, and the GI50 (786-0 renal) was 2.83 µM, the TGI (786-0 renal) was 10.6 µM and the GI50 (A498 renal) was 14.3 µM. The TGI (A498 renal) was 32.3 µM, the GI50 (A549 NSCLC) was 5.92 µM and the TGI (A549 NSCLC) was over 100 µM. For the same compound, the GI50 (ACHN renal) was 5 µM, the TGI (ACHN renal) was 24.9 µM and the GI50 (BT-549 breast) was 8.41 µM. The TGI (BT-549 breast) was 45.5 µM, the GI50 (CAKI-1 renal) was 2.95 µM and the TGI (CAKI-1 renal) was 11.9 µM. The GI50 (CCRF-CEM leukemia) was over 100 µM, the TGI (CCRF-CEM leukemia) was over 100 µM and the GI50 (COLO 205 colon) was over 100 µM. It also gave a TGI (COLO 205 colon) of over 100 µM, a TGI (DU-145 prostate) of over 100 µM and a GI50 (EKVX NSCLC) of 23.5 µM. It also gave a TGI (EKVX NSCLC) of over 100 µM, a GI50 (HCC-2998 colon) of 11.9 µM and a TGI (HCC-2998 colon) of over 100 µM. For the same compound, the GI50 (HCT-116 colon) was 3.94 µM, the TGI (HCT-116 colon) was over 100 µM and the GI50 (HCT-15 colon) was 31.9 µM. For the same compound, the TGI (HCT-15 colon) was over 100 µM, the GI50 (HL-60(TB) leukemia) was over 100 µM and the TGI (HL-60(TB) leukemia) was over 100 µM. The GI50 (HOP-62 NSCLC) was 8.39 µM, the TGI (HOP-62 NSCLC) was 24.3 µM and the GI50 (HOP-92 NSCLC) was 5.18 µM. For the same compound, the TGI (HOP-92 NSCLC) was 25.3 µM, the GI50 (HS 578T breast) was 2.3 µM and the TGI (HS 578T breast) was 7.76 µM. The GI50 (HT29 colon) was 13.2 µM, the TGI (HT29 colon) was over 100 µM and the GI50 (IGROV1 ovarian) was 15.3 µM. It also gave a TGI (IGROV1 ovarian) of 42.8 µM, a GI50 (K-562 leukemia) of over 100 µM and a TGI (K-562 leukemia) of over 100 µM. It also gave a GI50 (KM12 colon) of over 100 µM, a TGI (KM12 colon) of over 100 µM and a GI50 (LOX IMVI melanoma) of 3.47 µM. The TGI (LOX IMVI melanoma) was 14.7 µM, the GI50 (M14 melanoma) was 26.2 µM and the TGI (M14 melanoma) was over 100 µM. The GI50 (MALME-3M melanoma) was 3.43 µM, the TGI (MALME-3M melanoma) was 16.4 µM and the GI50 (MCF7 breast) was 3.32 µM. For the same compound, the TGI (MCF7 breast) was 18.6 µM, the GI50 (MDA-MB-231 breast) was 3.37 µM and the TGI (MDA-MB-231 breast) was 12.6 µM. It also gave a GI50 (MDA-MB-435) of 13 µM, a TGI (MDA-MB-435) of over 100 µM and a GI50 (MDA-MB-468 breast) of 3.13 µM. The TGI (MDA-MB-468 breast) was 16.1 µM, the GI50 (MOLT-4 leukemia) was over 100 µM and the TGI (MOLT-4 leukemia) was over 100 µM. It also gave a GI50 (NCI-H226 lung) of 2.4 µM, a TGI (NCI-H226 lung) of 7.25 µM and a GI50 (NCI-H23 lung) of 5.95 µM. For the same compound, the TGI (NCI-H23 lung) was 18.1 µM, the GI50 (NCI-H460 lung) was 3.7 µM and the TGI (NCI-H460 lung) was 15.1 µM. The GI50 (NCI-H522 lung) was 11.3 µM, the TGI (NCI-H522 lung) was 34.3 µM and the GI50 (NCI/ADR-RES ovarian) was 19.2 µM. For the same compound, the TGI (NCI/ADR-RES ovarian) was over 100 µM, the GI50 (OVCAR-3 ovarian) was 5.46 µM and the TGI (OVCAR-3 ovarian) was 23.4 µM. The GI50 (OVCAR-4 ovarian) was 2.99 µM, the TGI (OVCAR-4 ovarian) was 53 µM and the GI50 (OVCAR-5 ovarian) was 46.5 µM. The TGI (OVCAR-5 ovarian) was over 100 µM, the GI50 (OVCAR-8 ovarian) was 8.28 µM and the TGI (OVCAR-8 ovarian) was 45.4 µM. The GI50 (PC-3 prostate) was 17.6 µM, the TGI (PC-3 prostate) was over 100 µM and the GI50 (RXF 393 renal) was 2.06 µM. It also gave a TGI (RXF 393 renal) of 6.94 µM, a GI50 (SF-268 CNS) of 9.2 µM and a TGI (SF-268 CNS) of 38.8 µM. The GI50 (SF-295 CNS) was 3.04 µM, the TGI (SF-295 CNS) was 13.3 µM and the GI50 (SF-539 CNS) was 2.12 µM. It also gave a TGI (SF-539 CNS) of 5.25 µM, a GI50 (SK-MEL-2 melanoma) of 17.6 µM and a TGI (SK-MEL-2 melanoma) of 34.4 µM. The GI50 (SK-MEL-28 melanoma) was 33.5 µM, the TGI (SK-MEL-28 melanoma) was over 100 µM and the GI50 (SK-MEL-5 melanoma) was 4.05 µM. The TGI (SK-MEL-5 melanoma) was 28 µM, the GI50 (SK-OV-3 ovarian) was 15 µM and the TGI (SK-OV-3 ovarian) was 32 µM. It also gave a GI50 (SN12C renal) of 9.67 µM, a TGI (SN12C renal) of 45.7 µM and a GI50 (SNB-19 CNS) of 13.9 µM. The TGI (SNB-19 CNS) was 33.1 µM, the GI50 (SNB-75 CNS) was 1.63 µM and the TGI (SNB-75 CNS) was 5.21 µM. The GI50 (SR leukemia) was over 100 µM, the TGI (SR leukemia) was over 100 µM and the GI50 (SW-620 colon) was 18 µM. It also gave a TGI (SW-620 colon) of over 100 µM, a GI50 (T-47D breast) of 27.9 µM and a TGI (T-47D breast) of over 100 µM. For the same compound, the GI50 (TK-10 renal) was 6.89 µM, the TGI (TK-10 renal) was 22.2 µM and the GI50 (U251 CNS) was 3.83 µM. The TGI (U251 CNS) was 18.4 µM, the GI50 (UACC-257 melanoma) was 48 µM and the TGI (UACC-257 melanoma) was over 100 µM. It also gave a GI50 (UACC-62 melanoma) of 12 µM, a TGI (UACC-62 melanoma) of 28.8 µM and a GI50 (UO-31 renal) of 14.5 µM. It also gave a TGI (UO-31 renal) of 43.4 µM.
